Results taken from US5132111A (priority 1990, dated 1992).
Non-standard residues stand in square brackets, D forms with d. Residues, ends and D or L forms follow the SMILES beside them. hArg = N=C(N)NCCCC[C@H](N)C(=O)O; Nle = CCCC[C@H](N)C(=O)O

Tested on: cultured rat pituitary cells
Format: cell-based

| Structure (SMILES) | secretion of ACTH | secretion of β-endorphin (β-END-LI) |
| --- | --- | --- |
| CCCC[C@H](NC(=O)[C@@H](NC(=O)[C@H](CC(C)C)NC(=O)[C@H](CC(=O)O)NC(=O)[C@H](CC(C)C)NC(=O)[C@H](CO)NC(=O)[C@@H](NC(=O)[C@@H]1CCCN1C(=O)[C@@H]1CCCN1C(=O)[C@@H](N)CCC(=O)O)[C@@H](C)CC)[C@@H](C)O)C(=O)N[C@@H](Cc1c[nH]cn1)C(=O)N[C@@H](CC(C)C)C(=O)N[C@@H](CC(C)C)C(=O)N[C@@H](CCCNC(=N)N)C(=O)N[C@@H](CCC(=O)O)C(=O)N[C@H](C(=O)N[C@@H](CC(C)C)C(=O)N[C@@H](CCC(=O)O)C(=O)N[C@@H](CCSC)C(=O)N[C@@H](C)C(=O)N[C@@H](CCCNC(=N)N)C(=O)N[C@@H](C)C(=O)N[C@@H](CCC(=O)O)C(=O)N[C@@H](CCC(N)=O)C(=O)N[C@@H](CC(C)C)C(=O)N[C@@H](C)C(=O)N[C@@H](CCC(=O)O)C(=O)N[C@@H](CCC(N)=O)C(=O)N[C@@H](C)C(=O)N[C@@H](Cc1c[nH]cn1)C(=O)N[C@@H](CO)C(=O)N[C@@H](CC(N)=O)C(=O)N[C@@H](CCCNC(=N)N)C(=O)N[C@@H](CCCNC(=N)N)C(=O)N[C@@H](CC(C)C)C(=O)N[C@@H](CCSC)C(=O)N[C@@H](CCC(=O)O)C(=O)N[C@H](C(=O)N[C@H](C(N)=O)[C@@H](C)CC)[C@@H](C)CC)C(C)C (H-EPPISLDLT[Nle]HLLREVLEMARAEQLAEQAHSNRRLMEII-NH2) | stimulates | stimulates |
| CCCC[C@H](NC(=O)[C@H](CCC(=O)O)NC(=O)[C@H](CCCNC(=N)N)NC(=O)[C@H](CC(C)C)NC(=O)[C@H](CC(C)C)NC(=O)[C@H](Cc1c[nH]cn1)NC(=O)[C@H](Cc1ccccc1)NC(=O)[C@@H](NC(=O)[C@H](CC(C)C)NC(=O)[C@H](CC(=O)O)NC(=O)[C@H](CC(C)C)NC(=O)[C@H](CO)NC(=O)[C@@H](NC(=O)[C@@H]1CCCN1C(=O)[C@@H]1CCCN1C(=O)[C@H](CCC(=O)O)NC(=O)[C@@H](N)CCC(N)=O)[C@@H](C)CC)[C@@H](C)O)C(=O)N[C@@H](CC(C)C)C(=O)N[C@@H](CCC(=O)O)C(=O)N[C@@H](CCSC)C(=O)N[C@H](C(=O)N[C@@H](CCCNC(=N)N)C(=O)N[C@@H](C)C(=O)N[C@@H](CC(=O)O)C(=O)N[C@@H](CCC(N)=O)C(=O)N[C@@H](CC(C)C)C(=O)N[C@@H](C)C(=O)N[C@@H](CCC(N)=O)C(=O)N[C@@H](CCC(N)=O)C(=O)N[C@@H](C)C(=O)N[C@@H](Cc1c[nH]cn1)C(=O)N[C@@H](CO)C(=O)N[C@@H](CC(N)=O)C(=O)N[C@@H](CCCNC(=N)N)C(=O)N[C@@H](CCCNC(=N)N)C(=O)N[C@@H](Cc1ccc(O)cc1)C(=O)N[C@@H](CC(C)C)C(=O)N[C@@H](CC(=O)O)C(=O)N[C@@H](CCC(=O)O)C(=O)N[C@@H](C)C(N)=O)[C@@H](C)O (H-QEPPISLDLTFHLLRE[Nle]LEMTRADQLAQQAHSNRRYLDEA-NH2) | stimulates | stimulates |
| CCCC[C@H](NC(=O)[C@H](CCC(=O)O)NC(=O)[C@H](CC(C)C)NC(=O)[C@H](CCCC)NC(=O)[C@H](CCC(=O)O)NC(=O)[C@H](CCCNC(=N)N)NC(=O)[C@H](CC(C)C)NC(=O)[C@H](CC(C)C)NC(=O)[C@H](Cc1c[nH]cn1)NC(=O)[C@H](Cc1ccccc1)NC(=O)[C@@H](NC(=O)[C@H](CC(C)C)NC(=O)[C@H](CC(=O)O)NC(=O)[C@H](CC(C)C)NC(=O)[C@H](CO)NC(=O)[C@@H](NC(=O)[C@@H]1CCCN1C(=O)[C@H]1CCCN1)[C@@H](C)CC)[C@@H](C)O)C(=O)N[C@@H](C)C(=O)N[C@@H](CCCNC(=N)N)C(=O)N[C@@H](C)C(=O)N[C@@H](CCC(=O)O)C(=O)N[C@@H](CCC(N)=O)C(=O)N[C@@H](CCC(=O)O)C(=O)N[C@@H](C)C(=O)N[C@@H](CCC(=O)O)C(=O)N[C@@H](CCC(N)=O)C(=O)N[C@@H](C)C(=O)N[C@@H](C)C(=O)N[C@@H](CC(C)C)C(=O)N[C@@H](CC(N)=O)C(=O)N[C@@H](CCCNC(=N)N)C(=O)N[C@@H](CC(C)C)C(=O)N[C@@H](CC(C)C)C(=O)N[C@@H](CC(C)C)C(=O)N[C@@H](CCC(=O)O)C(=O)N[C@@H](CCC(=O)O)C(=O)N[C@@H](C)C(N)=O [[D-Pro^4, Nle^18,21]-AAHC(4-41)] (H-[dP]PISLDLTFHLLRE[Nle]LE[Nle]ARAEQEAEQAALNRLLLEEA-NH2) | stimulates | stimulates |
| CCCC[C@H](NC(=O)[C@H](CCC(=O)O)NC(=O)[C@H](CC(C)C)NC(=O)[C@H](CCCC)NC(=O)[C@H](CCC(=O)O)NC(=O)[C@H](CCCNC(=N)N)NC(=O)[C@H](CC(C)C)NC(=O)[C@H](CC(C)C)NC(=O)[C@H](Cc1c[nH]cn1)NC(=O)[C@H](Cc1ccccc1)NC(=O)[C@@H](NC(=O)[C@H](CC(C)C)NC(=O)[C@H](CC(=O)O)NC(=O)[C@H](CC(C)C)NC(=O)[C@H](CO)NC(=O)[C@@H](NC(=O)[C@@H]1CCCN1C(=O)[C@H]1CCCN1C(=O)[C@H](N)Cc1ccc(O)cc1)[C@@H](C)CC)[C@@H](C)O)C(=O)N[C@@H](C)C(=O)N[C@@H](CCCNC(=N)N)C(=O)N[C@@H](C)C(=O)N[C@@H](CCC(=O)O)C(=O)N[C@@H](CCC(N)=O)C(=O)N[C@@H](CCC(=O)O)C(=O)N[C@@H](C)C(=O)N[C@@H](CCC(=O)O)C(=O)N[C@@H](CCC(N)=O)C(=O)N[C@@H](C)C(=O)N[C@@H](C)C(=O)N[C@@H](CC(C)C)C(=O)N[C@@H](CC(N)=O)C(=O)N[C@@H](CCCNC(=N)N)C(=O)N[C@@H](CC(C)C)C(=O)N[C@@H](CC(C)C)C(=O)N[C@@H](CC(C)C)C(=O)N[C@@H](CCC(=O)O)C(=O)N[C@@H](CCC(=O)O)C(=O)N[C@@H](C)C(N)=O [[D-Tyr^3, D-Pro^4, Nle^18,21]-AHC(3-41)] (H-[dY][dP]PISLDLTFHLLRE[Nle]LE[Nle]ARAEQEAEQAALNRLLLEEA-NH2) | stimulates | stimulates |
| CCCC[C@H](NC(=O)[C@H](CCC(=O)O)NC(=O)[C@H](CC(C)C)NC(=O)[C@H](CCCC)NC(=O)[C@H](CCC(=O)O)NC(=O)[C@H](CCCNC(=N)N)NC(=O)[C@H](CC(C)C)NC(=O)[C@H](CC(C)C)NC(=O)[C@H](Cc1c[nH]cn1)NC(=O)[C@H](Cc1ccccc1)NC(=O)[C@@H](NC(=O)[C@H](CC(C)C)NC(=O)[C@H](CC(=O)O)NC(=O)[C@H](CC(C)C)NC(=O)[C@H](CO)NC(=O)[C@@H](NC(=O)[C@@H]1CCCN1C(=O)[C@@H]1CCCN1C(=O)[C@H](N)Cc1ccc(O)cc1)[C@@H](C)CC)[C@@H](C)O)C(=O)N[C@@H](C)C(=O)N[C@@H](CCCNC(=N)N)C(=O)N[C@@H](C)C(=O)N[C@@H](CCC(=O)O)C(=O)N[C@@H](CCC(N)=O)C(=O)N[C@@H](CCC(=O)O)C(=O)N[C@@H](C)C(=O)N[C@@H](CCC(=O)O)C(=O)N[C@@H](CCC(N)=O)C(=O)N[C@@H](C)C(=O)N[C@@H](C)C(=O)N[C@@H](CC(C)C)C(=O)N[C@@H](CC(N)=O)C(=O)N[C@@H](CCCNC(=N)N)C(=O)N[C@@H](CC(C)C)C(=O)N[C@@H](CC(C)C)C(=O)N[C@@H](CC(C)C)C(=O)N[C@@H](CCC(=O)O)C(=O)N[C@@H](CCC(=O)O)C(=O)N[C@@H](C)C(N)=O [[D-Tyr^3, Nle^18,21]-AAHC(3-41)] (H-[dY]PPISLDLTFHLLRE[Nle]LE[Nle]ARAEQEAEQAALNRLLLEEA-NH2) | stimulates | stimulates |
| CC[C@H](C)[C@H](NC(=O)[C@@H]1CCCN1C(=O)[C@@H]1CCCN1)C(=O)N[C@@H](CO)C(=O)N[C@@H](CC(C)C)C(=O)N[C@@H](CC(=O)O)C(=O)N[C@@H](CC(C)C)C(=O)N[C@H](C(=O)N[C@@H](CC(C)C)C(=O)N[C@@H](Cc1c[nH]cn1)C(=O)N[C@@H](CC(C)C)C(=O)N[C@@H](CC(C)C)C(=O)N[C@@H](CCCNC(=N)N)C(=O)N[C@@H](CCC(=O)O)C(=O)N[C@@H](CCSC)C(=O)N[C@@H](CC(C)C)C(=O)N[C@@H](CCC(=O)O)C(=O)N[C@@H](CCSC)C(=O)N[C@@H](CCC(=O)O)C(=O)N[C@@H](CCCCNC(=N)N)C(=O)N[C@@H](C)C(=O)N[C@@H](CCC(=O)O)C(=O)N[C@@H](CCC(N)=O)C(=O)N[C@@H](CCC(=O)O)C(=O)N[C@@H](C)C(=O)N[C@@H](CCC(=O)O)C(=O)N[C@@H](CCC(N)=O)C(=O)N[C@@H](C)C(=O)N[C@@H](C)C(=O)N[C@@H](CC(C)C)C(=O)N[C@@H](CC(N)=O)C(=O)N[C@@H](CCCNC(=N)N)C(=O)N[C@@H](CCCCNC(=N)N)C(=O)N[C@@H](CC(C)C)C(=O)N[C@@H](CC(C)C)C(=O)N[C@@H](CCC(=O)O)C(=O)N[C@@H](CCC(=O)O)C(=O)N[C@@H](C)C(N)=O)[C@@H](C)O [[Glu^22, Leu^12, Har^23,36]-AHC(4-41)] (H-PPISLDLTLHLLREMLEME[hArg]AEQEAEQAALNR[hArg]LLEEA-NH2) | stimulates | stimulates |
| CCCC[C@H](NC(=O)[C@H](CCC(=O)O)NC(=O)[C@H](CC(C)C)NC(=O)[C@H](CCCC)NC(=O)[C@H](CCC(=O)O)NC(=O)[C@H](CCCNC(=N)N)NC(=O)[C@H](CC(C)C)NC(=O)[C@H](CC(C)C)NC(=O)[C@H](Cc1c[nH]cn1)NC(=O)[C@H](Cc1ccccc1)NC(=O)[C@@H](NC(=O)[C@H](CC(C)C)NC(=O)[C@H](CC(=O)O)NC(=O)[C@H](CC(C)C)NC(=O)[C@H](CO)NC(=O)[C@@H](N)[C@@H](C)CC)[C@@H](C)O)C(=O)N[C@@H](C)C(=O)N[C@@H](CCCNC(=N)N)C(=O)N[C@@H](C)C(=O)N[C@@H](CCC(=O)O)C(=O)N[C@@H](CCC(N)=O)C(=O)N[C@@H](CCC(=O)O)C(=O)N[C@@H](C)C(=O)N[C@@H](CCC(=O)O)C(=O)N[C@@H](CCC(N)=O)C(=O)N[C@@H](C)C(=O)N[C@@H](C)C(=O)N[C@@H](CC(C)C)C(=O)N[C@@H](CC(N)=O)C(=O)N[C@@H](CCCNC(=N)N)C(=O)N[C@@H](CCCNC(=N)N)C(=O)N[C@@H](CC(C)C)C(=O)N[C@@H](CC(C)C)C(=O)N[C@@H](CCC(=O)O)C(=O)N[C@@H](CCC(=O)O)C(=O)N[C@@H](C)C(N)=O [[Nle^18,21, Arg^36]-AAHC(6-41)] (H-ISLDLTFHLLRE[Nle]LE[Nle]ARAEQEAEQAALNRRLLEEA-NH2) | stimulates | stimulates |
